Source: patent publication US20230240300A1, “NANO[…] MATERIAL BASED ON NIOBIUM OLIGOMERS, OBTENTION METHOD, AND USE” (UNIVERSIDADE FEDERAL DE MINAS GERAIS, priority 2020, published 2023)

System: coronavirus
Experiment: viral load reduction study, compound mixed with virus suspension
Type: cell-based
Conditions: eight parts compound mixed with one part virus suspension, room temperature, 10 min contact; FIG. 4(A)
Description: For viral load reduction studies directly employing the coronavirus, eight parts of the compound were adapted to room temperature (RT) and mixed with one part of the virus suspension. Immediately after incubation for defined periods at room temperature, the mixture was diluted 1:10. After four days of incubation at 37° C. in a CO2 incubator, cells were microscopically examined for virus-specific cytopathogenic effects after 10 min of virus contact with the niobium compound. All tests were performed in triplicate.
Initially, exploratory studies were carried out with different proportions of the compounds and with the materials separately. […] In fact, the results of samples S10 (representing a solution containing pure CTAB dissolved in water) and S12 (sample containing the same content of CTAB reacted with niobium), clearly indicate the potentiated effect of the Nb-CTAB species.

CCCCCCCCCCCCCCCC[N+](C)(C)C.[Br-] [CTAB, hexadecyltrimethylammonium bromide]
viral load reduction: approximately 30%
